Like-named read-outs stand apart in the source and are kept apart here.
Tests used:
[1] = test system: EAE; conditions: mouse, in vivo; cited from earlier work
[2] = test system: IDO; assay: IDO mRNA in cultured splenocytes; assay type: cell-based, mouse; conditions: titrating doses, 4 hours
[3] = test system: pDC/T cell coculture; assay: pDC/T cell co-culture, IDO and FoxP3 mRNA; assay type: cell-based, mouse; conditions: 5 days; SU5416 500 nM, TCDD 10 nM
[4] = in vivo; cited from earlier work
[5] = test system: LPS-induced airway inflammation; conditions: mouse, in vivo; cited from earlier work
[6] = metastatic colorectal cancers; cited from earlier work
[7] = test system: AHR; assay: Antagonism by CH223191 of DRE-driven luciferase activation
[8] = test system: naive T cells; assay: Naive T cells in Th17 conditions, IL-17 ELISA of supernatant; conditions: 3 days
[9] = test system: skin graft rejection; conditions: 2 doses of 50 mg/kg, 2 and 5 days after skin grafting
[10] = test system: naive T cells; assay: Naive CD4+ T cells with TGF-β, flow cytometry for FoxP3 and CD39; conditions: TGF-β 2 ng/ml with SU5416 250 nM, day 3
[11] = test system: AHR^fxneo/fxneo mice; assay: In utero exposure, closure of ductus venosus (DV) in AHR hypomorph mice; conditions: single dose 110 mg/kg i.p. to dams at E18.5; AHR^fxneo/fxneo pups at 4 weeks
[12] = molecular target: T1, AHR (AHR^b isoform) (Mus musculus, UniProt P30561, M589L/N533S/P471L); assay: Photoaffinity competitive ligand binding with radioligand 125Ibr2N3DpD in hepatic cytosol; design: species or system mouse (C57BL/6J)
T1 construct: from tissue; host or cells: liver of C57BL/6J mice (cytosol in A1; liver in vivo in A7)

[13] = molecular target: T2, high affinity AHR isoform (Rattus norvegicus, UniProt P41738)
T2 sequence (P41738 10-853): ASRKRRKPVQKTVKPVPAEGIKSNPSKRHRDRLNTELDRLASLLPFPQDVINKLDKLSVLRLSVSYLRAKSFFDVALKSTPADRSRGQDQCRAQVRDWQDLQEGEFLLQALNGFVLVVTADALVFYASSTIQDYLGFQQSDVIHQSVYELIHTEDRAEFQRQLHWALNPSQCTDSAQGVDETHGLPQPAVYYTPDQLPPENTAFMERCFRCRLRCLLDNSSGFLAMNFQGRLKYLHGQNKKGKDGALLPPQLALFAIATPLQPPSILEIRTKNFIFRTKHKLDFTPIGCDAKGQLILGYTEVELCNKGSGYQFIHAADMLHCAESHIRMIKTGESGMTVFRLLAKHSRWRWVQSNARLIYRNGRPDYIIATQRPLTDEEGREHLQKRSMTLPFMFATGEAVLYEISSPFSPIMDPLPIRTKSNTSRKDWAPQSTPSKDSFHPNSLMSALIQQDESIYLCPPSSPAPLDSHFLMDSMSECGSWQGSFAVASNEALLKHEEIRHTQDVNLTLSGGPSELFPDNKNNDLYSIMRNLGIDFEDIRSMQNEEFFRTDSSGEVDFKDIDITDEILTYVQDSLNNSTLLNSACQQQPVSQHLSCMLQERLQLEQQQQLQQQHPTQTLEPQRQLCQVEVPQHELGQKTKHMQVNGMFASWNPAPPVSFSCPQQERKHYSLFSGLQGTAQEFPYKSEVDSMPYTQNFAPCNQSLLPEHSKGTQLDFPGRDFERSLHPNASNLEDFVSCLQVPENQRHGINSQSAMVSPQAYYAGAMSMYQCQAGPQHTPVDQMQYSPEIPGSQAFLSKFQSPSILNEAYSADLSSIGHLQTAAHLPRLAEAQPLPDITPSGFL

[14] = molecular target: T3, AHR^d (Mus musculus, UniProt P30561, A375V); assay: Hepatic microsomal EROD activity after oral dosing, DBA/2J mice; assay type: in vivo, mouse (DBA/2J); design: from tissue; host or cells: liver of DBA/2J mice dosed orally; conditions: oral SU5416 30, 80, 120 mg/kg; BNF 120 mg/kg, after 48 hours
[15] = molecular target: murine AHR^d low affinity receptor (Mus musculus, UniProt P30561, A375V); assay: EROD activity in AHR^d-15 cells (rat hepatoma BP8 expressing murine AHR^d)
[16] = test system: AHR
[17] = test system: AHR^fxneo/fxneo mice; conditions: mouse, in vivo; cited from earlier work
[18] = molecular target: T3, AHR^d; assay: CYP1A1 mRNA (qPCR) in splenocytes of AHR^d congenic mice
[19] = molecular target: T4, AHR A375V (valine point mutation, AHR^d type) (Mus musculus, UniProt P30561, A375V); assay: DRE-luciferase in COS-1 cells transfected with mAHR-A375V; conditions: read-out: EC50, DRE-luciferase; A375V transfected COS-1 cells, 4 hours
T4 sequence (P30561 10-848 A375V): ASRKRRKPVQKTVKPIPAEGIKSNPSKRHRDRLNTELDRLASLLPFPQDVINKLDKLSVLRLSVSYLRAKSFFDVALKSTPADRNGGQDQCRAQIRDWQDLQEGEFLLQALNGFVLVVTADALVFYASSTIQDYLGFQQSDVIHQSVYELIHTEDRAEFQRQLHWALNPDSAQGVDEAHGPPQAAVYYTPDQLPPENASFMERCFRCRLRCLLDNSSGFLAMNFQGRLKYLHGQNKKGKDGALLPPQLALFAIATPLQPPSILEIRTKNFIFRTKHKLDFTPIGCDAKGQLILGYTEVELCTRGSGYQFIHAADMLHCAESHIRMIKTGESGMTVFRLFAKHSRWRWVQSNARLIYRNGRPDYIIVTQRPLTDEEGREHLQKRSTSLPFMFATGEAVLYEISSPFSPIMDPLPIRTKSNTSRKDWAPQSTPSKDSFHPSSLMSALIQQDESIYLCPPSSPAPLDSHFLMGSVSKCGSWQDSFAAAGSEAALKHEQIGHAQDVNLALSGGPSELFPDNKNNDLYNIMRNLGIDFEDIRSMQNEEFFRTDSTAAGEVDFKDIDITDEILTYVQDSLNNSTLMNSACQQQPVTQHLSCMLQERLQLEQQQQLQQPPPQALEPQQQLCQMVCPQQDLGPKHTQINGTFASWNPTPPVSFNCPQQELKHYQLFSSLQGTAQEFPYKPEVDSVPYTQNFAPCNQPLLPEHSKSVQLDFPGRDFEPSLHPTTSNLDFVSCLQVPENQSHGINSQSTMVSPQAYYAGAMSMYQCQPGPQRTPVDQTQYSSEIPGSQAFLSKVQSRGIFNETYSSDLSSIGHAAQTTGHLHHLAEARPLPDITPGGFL

[20] = molecular target: AHR^b (Mus musculus, UniProt P30561, M589L/N533S/P471L); assay: CYP1A1 mRNA (qPCR) in splenocytes of wild-type C57BL/6J mice
[21] = molecular target: T5, wild-type AHR (AHR^b) (Mus musculus, UniProt P30561, M589L/N533S/P471L); assay: DRE-luciferase in COS-1 cells transfected with wild-type mAHR
T5 sequence (P30561 10-805 P471L/N533S/M589L): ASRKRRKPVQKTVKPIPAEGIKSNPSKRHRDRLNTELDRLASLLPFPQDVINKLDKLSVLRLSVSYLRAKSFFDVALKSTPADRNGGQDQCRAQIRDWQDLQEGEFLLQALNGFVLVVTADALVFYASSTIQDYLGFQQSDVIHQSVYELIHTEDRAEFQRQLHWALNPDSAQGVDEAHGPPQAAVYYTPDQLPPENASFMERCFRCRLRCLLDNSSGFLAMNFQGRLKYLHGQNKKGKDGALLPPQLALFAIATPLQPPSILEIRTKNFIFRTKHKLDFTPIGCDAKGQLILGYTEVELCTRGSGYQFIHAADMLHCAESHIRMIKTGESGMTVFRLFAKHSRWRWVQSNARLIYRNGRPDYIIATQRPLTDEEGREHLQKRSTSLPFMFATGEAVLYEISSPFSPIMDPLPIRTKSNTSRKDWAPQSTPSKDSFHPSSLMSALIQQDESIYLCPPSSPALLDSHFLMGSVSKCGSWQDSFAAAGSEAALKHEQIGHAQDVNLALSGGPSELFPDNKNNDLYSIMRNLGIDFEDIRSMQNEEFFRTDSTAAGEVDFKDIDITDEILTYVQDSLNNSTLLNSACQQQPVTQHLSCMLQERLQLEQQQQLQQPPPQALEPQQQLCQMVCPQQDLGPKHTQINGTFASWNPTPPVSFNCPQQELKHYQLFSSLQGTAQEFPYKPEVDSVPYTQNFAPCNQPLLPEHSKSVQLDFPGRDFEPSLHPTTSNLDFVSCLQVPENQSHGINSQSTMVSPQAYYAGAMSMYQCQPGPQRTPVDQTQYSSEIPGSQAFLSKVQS

[22] = molecular target: T3, AHR^d; design: endogenous in cells; host or cells: primary splenocytes of AHR^d congenic mice; conditions: cited from earlier work

T1 sequence (P11499 whole entry partner, one chain of several, canonical isoform): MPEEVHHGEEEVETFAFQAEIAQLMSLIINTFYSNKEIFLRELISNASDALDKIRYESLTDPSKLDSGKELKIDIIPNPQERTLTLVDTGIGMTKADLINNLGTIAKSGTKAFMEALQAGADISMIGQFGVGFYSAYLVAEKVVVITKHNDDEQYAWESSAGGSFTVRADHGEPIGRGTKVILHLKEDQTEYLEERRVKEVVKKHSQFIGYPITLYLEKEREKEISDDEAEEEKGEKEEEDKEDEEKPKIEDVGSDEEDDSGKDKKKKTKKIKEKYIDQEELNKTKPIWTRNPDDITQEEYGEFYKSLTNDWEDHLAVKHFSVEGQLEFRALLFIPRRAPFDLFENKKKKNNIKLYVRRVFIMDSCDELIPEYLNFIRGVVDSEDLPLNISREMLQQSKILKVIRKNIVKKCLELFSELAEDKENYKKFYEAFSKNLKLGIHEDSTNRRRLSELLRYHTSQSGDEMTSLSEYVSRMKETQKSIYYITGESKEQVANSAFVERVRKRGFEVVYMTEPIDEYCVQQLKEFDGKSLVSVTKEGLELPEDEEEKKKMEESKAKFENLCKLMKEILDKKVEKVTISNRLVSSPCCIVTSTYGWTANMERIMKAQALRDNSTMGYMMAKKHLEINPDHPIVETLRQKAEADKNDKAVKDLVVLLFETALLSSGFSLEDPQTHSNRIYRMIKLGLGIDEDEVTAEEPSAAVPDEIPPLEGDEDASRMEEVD
T3 sequence (P11499 whole entry partner, one chain of several): as the sequence (P11499 whole entry partner, one chain of several, canonical isoform) above
murine AHR^d low affinity receptor, sequence (P34058 whole entry partner, one chain of several): as the sequence (P11499 whole entry partner, one chain of several, canonical isoform) above
AHR^b, sequence (P11499 whole entry partner, one chain of several): as the sequence (P11499 whole entry partner, one chain of several, canonical isoform) above

O=Cc1c2[nH]c3ccccc3c2cc2[nH]c3ccccc3c12 [FICZ, formylindolo[3,2-b]carbazole]
effect on EAE [1]: aggravates this syndrome

Cc1cc(C)c(/C=C2\C(=O)Nc3ccccc32)[nH]1 [SU5416, 3-[(2,4-dimethylpyrrol-5-yl)methylidenyl]-indolin-2-one]
IDO mRNA induction [2]: induced significant amounts of IDO mRNA | FoxP3 mRNA in pDC/T cell coculture [3]: generated | IDO mRNA in pDC/T cell coculture [3]: generated | plasma half-life [4]: 30 min | effect on EAE [1]: abrogate EAE | effect on LPS-induced airway inflammation [5]: blocked LPS-induced airway inflammation | tolerability in clinical trials [6]: well tolerated | inhibition of DRE activation by titrated CH223191 [7]: minimal inhibition | IL-17 protein in supernatant ([8]; higher doses): did not see this effect | IL-17 protein in supernatant ([8]; low doses): small increase in IL-17 protein | skin graft survival [9]: prolonged graft survival compared to the control group | CD39 expression [10]: up regulated CD39 in the FoxP3^+ T cells | FoxP3 protein expression by flow cytometry [10]: significantly enhanced the FoxP3 protein expression | pups with closed DV [11]: 13 of 22

O=c1cc(-c2ccccc2)oc2ccc3ccccc3c12 [BNF, β-naphthoflavone]
IC50 [12]: 2.8 nM | EROD response in 5L cell line [13]: strong response | hepatic EROD activity [14]: dramatically decreased in vivo activity | EROD response in AHR^d-15 cells ([15]; doses as high as 10 uM): no response

Clc1cc2c(cc1Cl)Oc1cc(Cl)c(Cl)cc1O2 [TCDD, 2,3,7,8-tetrachlorodibenzo-p-dioxin]
IC50 [12]: 1.5 nM | FoxP3 mRNA in pDC/T cell coculture [3]: up regulation was also seen | IDO mRNA in pDC/T cell coculture [3]: up regulation was also seen | duration of luciferase (DRE) activity [16]: long duration DRE-binding | closure of DV by in utero activation in hypomorphs [17]: successfully closed the DV | effect on EAE [1]: ameliorate the symptoms | EC50 [18]: 1.89 nM | total fold change of CYP1A1, AHR^b versus AHR^d ([18]; splenocytes, qPCR, 4 hours): more CYP1A1 in AHR^b compared to AHR^d mice | EC50 [19]: 2.47 nM | inhibition of DRE activation by titrated CH223191 ([7]; 1 nM TCDD or 100 nM SU5416, 4 hours): inhibited | EC50 [20]: 0.461 nM | EC50 [21]: 0.73 nM | shift of EROD dose curve between AHR^b (5L) and AHR^d-15 ([15]; to the left for the AHR^b isoform): 1.5 orders of magnitude | binding affinity of AHR^d relative to AHR^b [22]: one-fifteenth to one-twentieth

c1ccc2cc3c(ccc4ccccc43)cc2c1 [1,2-Benzanthracene]
IC50 ([12]; C57BL/6J hepatic cytosol, 1 nM radioligand, read-out: IC50, competitive binding): 13.7 nM

Source: patent US20180042899A1, “Method of Treating Transplant Rejection and Autoimmune Diseases” (priority 2012, published 2018)
